Test results taken from patent US20110244496A1, “HIV REVERSE TRANSCRIPTASE COMPOSITIONS AND METHODS” (priority 2007, published 2011).
Read-outs that look alike come from different tables or passages of the source.

How the values were obtained:
[1] = molecular target: T1, Lys103Asn/Tyr181Cys double mutant RT (Human immunodeficiency virus type 1 group M subtype B, UniProt P03366, K702N/Y780C); settings: cited from earlier work
T1 construct: RT is a heterodimer consisting of a p66 and p51 subunit

[2] = molecular target: T2, Y181C RT mutant (Human immunodeficiency virus type 1 group M subtype B, UniProt P03366, Y780C); test: EC50 of TMC278 against Y181C mutant; format: cell-based, HIV-1; settings: Example 4
T2 construct: RT is a heterodimer consisting of a p66 and p51 subunit

[3] = molecular target: T3, K103N RT mutant (Human immunodeficiency virus type 1 group M subtype B, UniProt P03366, K702N); test: EC50 of TMC278 against K103N mutant; format: cell-based, HIV-1; settings: Example 4
T3 construct: RT is a heterodimer consisting of a p66 and p51 subunit

[4] = test system: HIV-1; settings: antiretroviral naïve patients; once daily 25, 50, 100, or 150 mg for seven days; day 8 versus before initial dosage; Goebel et al., 2006; cited from earlier work
[5] = patients given TMC278 once daily for seven days; Goebel et al., 2006; cited from earlier work
[6] = molecular target: T4, Leu100Ile/Lys103Asn double mutant RT (Human immunodeficiency virus type 1 group M subtype B, UniProt P03366, K702N/L699I); test: EC50 of TMC278 against L100I/K103N double mutant; format: cell-based, HIV-1; settings: Example 4 (Table 1, not given)
T4 construct: RT is a heterodimer consisting of a p66 and p51 subunit

[7] = molecular target: T5, wild-type RT (Human immunodeficiency virus type 1 group M subtype B, UniProt P03366); settings: cited from earlier work
T5 construct: RT is a heterodimer consisting of a p66 and p51 subunit

[8] = molecular target: T4, Leu100Ile/Lys103Asn double mutant RT; settings: cited from earlier work
[9] = molecular target: T1, Lys103Asn/Tyr181Cys double mutant RT; test: EC50 of TMC278 against K103N/Y181C double mutant; format: cell-based, HIV-1; settings: Example 4
[10] = Goebel et al., 2006, cited from earlier work

## rilpivirine [TMC278]
[1]; K103N and Y181C (RT55A mutations), de Bethune et al. online poster 2005
  EC50: 1.7 nM
[1]; Lys103Asn/Tyr181Cys double mutant, Guillemont et al., 2005, Janssen et al
  EC50: 1 nM
[2]
  EC50: < 1 nM
[3]
  EC50: < 1 nM
[4]
  average decrease of HIV-1 RNA viral load: 1.199 log10 copies/ml
[5]
  headaches reported, patients: 14%
[6]
  EC50: ~8 nM
[7]; Example 2, read-out: EC50 (the 50% effective concentration)
  EC50: 0.4 nM
[7]; de Bethune et al. online poster 2005, read-out: EC50
  EC50: 0.51 nM
[8]; L100I and K103N (RT51A mutations), de Bethune et al. online poster 2005, read-out: EC50
  EC50: 2.7 nM
[8]; double mutant Leu100Ile/Lys103Asn, Example 2, read-out: EC50 (the 50% effective concentration)
  EC50: 7 nM
[9]
  EC50: < 1 nM
[10]; at any of the time points tested, target concentration 13.5 ng/ml
  plasma concentrations of TMC278: ≥ 13.5 ng/mL
[10]; patients, once daily dosage
  Bioavailability: excellent
